The results in this text go back to patent publication US7648976B2, “17-allylamino-17-demethoxygeldanamycin polymorphs and formulations” (Bristol-Myers Squibb Company, priority 2005, dated 2010).

Entries after “also recorded” stand apart in the source; their conditions may differ.

Data set [1] is described as follows: Effect of 17-AAG starting polymorph on formulation properties. It counts as physicochemical. As to conditions: non-sterile formulation made by procedure of Example 7 from the named polymorph. The method, then:
Particle size distribution was determined by dynamic light scattering with a Nanotract 250 particle size analyzer (Microtrac Inc., Montgomeryville, Pa.). The Nanotrac 250 settings were configured for measuring the PSD (volume distribution) of “Irregular” Shaped particles of “Absorbing” Transparency in a fluid with characteristics of water (Refractive Index: 1.333, Viscosity at 20° C.: […], Viscosity at 30° C.: 1.002 cP). A background signal was measured using 5% Dextrose for Injection (D5W). Then, the nanoparticle formulation was diluted 10 to 20-fold into D5W and mixed well. The PSD of the diluted sample was measured as the average of five replicate 5-minute analyses and reported in histogram format as a function of particle size. While the PSD reflects the range and frequency of particle sizes, other characteristics of the PSD were used for quantitation. The D50 is the volume percentile corresponding to the particle size larger than 50% of the total particle volume (i.e. the median particle size). The D90 is the volume percentile corresponding to the particle size larger than 90% of the total particle volume and is a measure of the largest particles in the dispersion. The particle size distribution measured by dynamic light scattering techniques was supplemented with SEM images, acquired by techniques established in the art. The particle sizes determined via the SEM images were in general agreement with those determined by light scattering.
17-AAG (purified Polymorph C, 1.25 g) was mixed with WFI (3.62 g) and a solution of polysorbate 80 (2.5 g of a 10 weight % solution in WFI), an aqueous suspension of soybean phosphatidylcholine (0.63 g of a 10 weight % suspension in WFI), and a solution of sucrose (10 g of a 25 weight % solution in WFI). The mixture was loaded into the reservoir of a Microfluidics Model 110S microfluidizer containing 7 g WFI set up as described in the previous example and processed under the same conditions. This procedure yielded a formulation having a 17-AAG concentration of approximately 50 mg/mL in an aqueous medium having approximately 1.0 weight % polysorbate 80, 0.25 weight % soy phosphatidylcholine, and 10 weight % sucrose, with a 17-AAG particle size distribution of below 1 micron with median particle size of 300 nm volume distribution.
Non-sterile formulations of 17-AAG were made with other polymorphs using the procedure of Example 7 and compared against formulations made with purified Polymorph C.

Data set [2] is described as follows: Polymorph stability to heat and humidity (VT-XRPD, DSC). The data set is classed as physicochemical. As to conditions: for polymorph conversion upon heating: VT-XRPD and/or DSC. The text has this:
17-AAG is polymorphic and exists in multiple forms, many of which are solvates. We have generated many polymorphs using a variety of solvents and crystallization conditions. The polymorphs were characterized by techniques such as XRPD, DSC, infrared spectroscopy, gravimetric vapor sorption (GVS), ^1H-NMR, polarized light microscopy (PLM), and thermogravimetric analysis (TGA). We grouped the polymorphs according to similarities in XRPD data, with summary descriptions provided below. Polymorphs that are solvated are referred to by group and solvate names, as in “Polymorph A (DMF solvate)” or “the DMF solvate of Polymorph A”. • Group A The N,N-dimethylformamide (DMF), ethyl acetate (EtOAc), and methyl isobutyl ketone (MIBK) solvates of Polymorph A all have XRPD peaks at about 5.6, 7.0, 9.2, 11.2, 16.4, and 17.9 degrees 2θ (the first four being its lowest angle peaks). […] It has characteristic XRPD peaks at about 6.4, 8.3, 9.6, 13.3, 14.9, 15.7, 19.1, and 20.8 degrees 2θ. […] Typically, this polymorph group is prepared using high boiling solvents. After melting, these polymorphs exist in a molten state until decomposition at about 220° C.

For `C=CCNC1=C2C[C@@H](C)C[C@H](OC)[C@H](O)[C@@H](C)/C=C(\C)[C@H](OC(N)=O)[C@@H](OC)/C=C\C=C(/C)C(=O)NC(=CC1=O)C2=O` [Polymorph C, 17-allylamino-17-demethoxygeldanamycin], in data set [1], the Consistency entry is “Water-like”, the D50 was 0.28 μm and the Remarks result was “Stable nanoparticle”. Moreover, the “polymorph conversion upon heating” value in data set [2] is “does not convert to any other polymorph upon heating”. Besides, the “relative stability among 17-AAG polymorphs” value in data set [2] (moisture/humidity and heat) was “the most stable to moisture and heat; also recorded: the most stable to heat and humidity”.
`C=CCNC1=C2C[C@@H](C)C[C@H](OC)[C@H](O)[C@@H](C)/C=C(\C)[C@H](OC(N)=O)[C@@H](OC)/C=C\C=C(/C)C(=O)NC(=CC1=O)C2=O` [Amorphous, 17-allylamino-17-demethoxygeldanamycin]: in data set [1] (listed as Amorphous (1st run)), the Consistency result is on record as “Paste-like” and the Remarks result is reported as “Does not form stable”. In addition, in data set [1] (listed as Amorphous (2nd run)), the Consistency result is on record as “Paste-like” and the Remarks entry is “Does not form stable”.
In the case of `C=CCNC1=C2C[C@@H](C)C[C@H](OC)[C@H](O)[C@@H](C)/C=C(\C)[C@H](OC(N)=O)[C@@H](OC)/C=C\C=C(/C)C(=O)NC(=CC1=O)C2=O` [Polymorph E, 17-allylamino-17-demethoxygeldanamycin], in data set [2] (40° C. and 70% relative humidity (RH)), the “polymorph conversion under humidity” value was “conversion to Polymorph C is observed”.
Consider `C=CCNC1=C2C[C@@H](C)C[C@H](OC)[C@H](O)[C@@H](C)/C=C(\C)[C@H](OC(N)=O)[C@@H](OC)/C=C\C=C(/C)C(=O)NC(=CC1=O)C2=O` [Polymorph A, 17-allylamino-17-demethoxygeldanamycin], for which the “polymorph conversion upon heating” value in data set [2] was “converted to the more stable Polymorph C”.
For `C=CCNC1=C2C[C@@H](C)C[C@H](OC)[C@H](O)[C@@H](C)/C=C(\C)[C@H](OC(N)=O)[C@@H](OC)/C=C\C=C(/C)C(=O)NC(=CC1=O)C2=O` [Polymorph G, 17-allylamino-17-demethoxygeldanamycin], in data set [1], the Consistency entry was “Water-like” and the D50 was found to be 0.36 μm. The “polymorph conversion upon heating” value in data set [2] is given as “Heating converts Polymorph G to Polymorph C”.
Take `C=CCNC1=C2C[C@@H](C)C[C@H](OC)[C@H](O)[C@@H](C)/C=C(\C)[C@H](OC(N)=O)[C@@H](OC)/C=C\C=C(/C)C(=O)NC(=CC1=O)C2=O` [Polymorph B, 17-allylamino-17-demethoxygeldanamycin]: the Consistency result in data set [1] (listed as B (1st run)) and in data set [1] (listed as B (2nd run)) was “Highly viscous” throughout. The D50 is recorded as 1.8 μm in data set [1] (listed as B (1st run)) and 2.0 μm in data set [1] (listed as B (2nd run)). Moreover, the “polymorph conversion upon heating” value in data set [2] is reported as “converted to Polymorph C”.
Turning to `C=CCNC1=C2C[C@@H](C)C[C@H](OC)[C@H](O)[C@@H](C)/C=C(\C)[C@H](OC(N)=O)[C@@H](OC)/C=C\C=C(/C)C(=O)NC(=CC1=O)C2=O` [Polymorph D (dichloromethane solvate), 17-allylamino-17-demethoxygeldanamycin], the “polymorph conversion upon heating” value in data set [2] is listed as “converts to Polymorph C”.
